Assays:
[1] = tested on: T cells isolated from mouse spleens; experiment: T cell proliferation inhibition (CFSE flow cytometry, anti-CD3/anti-CD28 activation); type: cell-based, C57BL/6 mice; settings: mouse spleen T cells, CD3/CD28 activated, cultured three days
In short: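 Splenic T cells from 7-week-old C57BL/6 mice were CFSE-labelled and seeded at 2×10^5/well. They were activated with anti-CD3/anti-CD28 ([…]) and treated with compound at […] in triplicate for 3 days at 37 °C. Proliferation was read by CFSE dilution on flow cytometry and expressed as % inhibition.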

[2] = tested on: HCT-116 colon cancer cell lines; experiment: Invasion Assay using Matrigel, HCT-116; type: cell-based, Human; settings: HCT-116, Matrigel, 24 hours treatment, vs DMSO
Method: To evaluate the metastasis inhibitory efficacy of the compounds of the present invention on HCT-116 colon cancer cell lines, an Invasion Assay using Matrigel was performed to assess the cells' invasion ability.
First, Matrigel was thawed on ice in RPMI-1640 medium without FBS, then diluted with DMEM at a ratio of 1:20.
The diluted Matrigel mixture was applied to the upper chamber at 100 μl per well, and 750 μl of RPMI-1640 without FBS was added to the lower chamber.
The plates were then incubated at 37° C. for 1 hour to allow the Matrigel to solidify.
After coating, the Matrigel mixture in the upper chamber was removed using a pipette, and the chamber was washed with RPMI without FBS.
Human-derived colorectal cancer cell line HCT-116, obtained from the Korean Cell Bank, was cultured in RPMI-1640 medium containing 10% FBS. […]
After staining was complete, any remaining cells in the upper chamber were removed. Finally, the infiltrated cells were observed under a microscope, photographed, and the degree of infiltration was analyzed.

psoriasis-induced mice = experiment: In vivo psoriasis model (Aldara cream, Imiquimod); parameters: species or system BALB/c mice
Method: To verify the therapeutic effect of the compound according to the present invention on psoriasis, a psoriasis animal model was established as follows, and the compound according to the present invention was administered to evaluate the alleviation of skin lesions and changes in immune cell patterns.
For the establishment of the psoriasis animal model, BALB/c mice (7 weeks old, female, 20 g) were purchased from HanabioTech Co., Ltd. and acclimatized to the rearing environment for one week.
Subsequently, the hair on the mouse back was shaved using a hair removal device for the first time, and then completely shaved using a depilatory cream (Nicrin Cream (80% thioglycolic acid, II Dong Pharmaceutical)) for the second time. […]
Body weights of mice in each group were measured on days 1, 4, and 8 after the start of injection and psoriasis induction. […]
To evaluate the therapeutic effect in a psoriasis-induced mouse model, the PASI (Psoriasis Area and Severity Index) score was measured.
The PASI score is based on three criteria: erythema, scaling, and skin thickness, each scored from 0 (none) to 4 (severe). […]
Observations were conducted daily at the same time, and the same observer visually assessed each criterion and recorded the scores, with the results presented in FIG. 13. […]
All samples were measured in duplicate, and the absorbance was measured at 450 nm using a microplate reader.

Row | Compound | Proliferation inhibition rate (%) ([1]; 10 nM) | Proliferation inhibition rate (%) ([1]; 100 nM) | Proliferation inhibition rate (%) ([1]; 1 μM) | Proliferation inhibition rate (%) ([1]; 10 μM) | Proliferation inhibition rate (%) ([1]; 30 μM) | Proliferation inhibition rate (%) ([1]; 50 μM) | number of infiltrated cells (invasion) [2] | efficacy in improving dermatological symptoms (psoriasis-induced mice)
1 | 12-(4-Hydroxypiperazin-1-Yl)Dodecyl-N-(6-Aminopurazin-2-Yl)Carboxamide [Compound 10] | 100.00% | 100.00% | 100.00% | 100.00% | 100.00% | 100.00% | reduction in the number of infiltrated cells | 
2 | Nc1nc(NC(=O)CCCCCCCCCCCCN2CCN(CCO)CC2)nc2nc[nH]c12 [Compound 15, 12-[4-(2-Hydroxyethyl)Piperazin-1-Yl]Dodecyl-N-(6-Aminopurine-2-Yl)Carboxamide] |  |  |  |  |  |  |  | excellent efficacy in improving dermatological symptoms

From patent US20260183303A1, “PDK1 REGULATORY COMPOUND AND COMPOSITION CONTAINING THE SAME” (PROVIBIO CO., LTD., priority 2024, published 2026)
